# Test results published in patent US12612392B2, “Compound, pharmaceutical compositions containing same, synthesis method therefor and use thereof” (SHENZHEN ZHONGGE BIOLOGICAL TECHNOLOGY CO., LTD., priority 2022, dated 2026).
# What was measured:
# [1] = Kinetic solubility evaluation; assay type: physicochemical; conditions: kinetic from dmso stock, 37° C.
# Description: The test compounds were dissolved in DMSO to prepare 10 mM stock solutions. 8.71 g of K2HPO4 was added to 500 mL of deionized water to prepare a 100 mM K2HPO4 solution. 2.05 g of potassium dihydrogen phosphate was added to 150 ml of deionized water to prepare a 100 mM potassium dihydrogen phosphate solution. 405 mL of 100 mM K2HPO4 and 95 mL of 100 mM KH2PO4 were mixed, and the mixed solution was adjusted to pH 7.4 by a 100 mM K2HPO4/KH2PO4 solution. 10.41 g of FaSSIF buffer concentrate was added to 240.3 g of deionized water to prepare a buffer solution (fasted-state simulated intestinal fluid, pH=6.5). 4.071 g of FeSSIF buffer concentrate was added to 45.97 g of deionized water to prepare a buffer solution (fed-state simulated intestinal fluid, pH=5.0).
# […] (for PBS) or 37° C. (for others). After the incubation, the solution was transferred to a filter plate. All samples were filtered. 5 μL of the filtrate was added to 5 μL of DMSO, and 490 μl of an aqueous acetonitrile solution containing the internal standard (1:1), and the mixture was mixed evenly. Based on the properties of the compound and its response in mass spectrometry, dilution with an aqueous acetonitrile solution containing the internal standard (1:1) was performed. The dilution factor was varied according to the solubility value and UPLC-MS/MS signal response.
# [2] = biological target: T1, CYP2C9 (Homo sapiens, UniProt P11712); assay: P450 enzyme inhibition, CYP2C9; assay type: in vitro ADME; conditions: human liver microsome, substrate Diclofenac sodium
# T1 construct: A phosphate buffer solution of liver microsomes was prepared; from tissue; host or cells: human liver microsomes
# T1 sequence (P11712 whole entry): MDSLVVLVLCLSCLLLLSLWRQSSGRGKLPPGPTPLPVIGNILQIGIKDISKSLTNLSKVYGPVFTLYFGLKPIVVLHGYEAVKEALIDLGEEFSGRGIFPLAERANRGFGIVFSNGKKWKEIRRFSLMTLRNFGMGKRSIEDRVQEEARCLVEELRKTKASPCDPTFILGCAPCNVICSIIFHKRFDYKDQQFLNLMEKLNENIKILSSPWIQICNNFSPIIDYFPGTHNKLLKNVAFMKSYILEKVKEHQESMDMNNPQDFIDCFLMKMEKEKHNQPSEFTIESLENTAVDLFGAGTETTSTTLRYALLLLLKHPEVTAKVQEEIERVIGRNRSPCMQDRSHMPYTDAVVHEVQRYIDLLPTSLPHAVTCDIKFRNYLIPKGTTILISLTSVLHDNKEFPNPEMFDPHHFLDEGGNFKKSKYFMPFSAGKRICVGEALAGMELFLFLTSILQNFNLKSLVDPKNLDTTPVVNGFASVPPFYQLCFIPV
# Description: (§1) A phosphate buffer solution of liver microsomes was prepared. 169 μL of the phosphate buffer solution of liver microsomes and 1 μL of working solutions of various concentrations of test compounds or positive control compounds were added to a 96-well plate. The culture plate was placed in a water bath and pre-heated at 37° C. for 15 minutes. After the incubation, 10 μL of substrates were added to the culture plate (1 μL of substrates and 9 μL of the K-Mg buffer solution were added to the plate for CYP3A4-T). The incubation mixture was mixed on a rotating mixer for 10 seconds, and then 20 μL of a 10 mM NADPH solution was added to start the reaction at a final concentration of 1 mM. The experiment was repeated twice. At the predetermined time points listed in Table 4, the reaction was quenched by adding 400 μL of the quenching solution (cold ACN containing 500 nM mephetedrine and 10 nM terfenadine). Centrifugation was performed at 3220 g for 50 minutes at 4° C. 100 μl of the supernatant was transferred to a new plate. The supernatant was diluted with 100 μL of pure water. The mixture was mixed evenly, and the sample was analyzed by UPLC-MS/MS.
# [3] = biological target: T2, CYP1A2 (Homo sapiens, UniProt P05177); assay: P450 enzyme inhibition, CYP1A2; assay type: in vitro ADME; conditions: human liver microsome, substrate Phenacetin
# T2 construct: A phosphate buffer solution of liver microsomes was prepared; from tissue; host or cells: human liver microsomes
# T2 sequence (P05177 1-516): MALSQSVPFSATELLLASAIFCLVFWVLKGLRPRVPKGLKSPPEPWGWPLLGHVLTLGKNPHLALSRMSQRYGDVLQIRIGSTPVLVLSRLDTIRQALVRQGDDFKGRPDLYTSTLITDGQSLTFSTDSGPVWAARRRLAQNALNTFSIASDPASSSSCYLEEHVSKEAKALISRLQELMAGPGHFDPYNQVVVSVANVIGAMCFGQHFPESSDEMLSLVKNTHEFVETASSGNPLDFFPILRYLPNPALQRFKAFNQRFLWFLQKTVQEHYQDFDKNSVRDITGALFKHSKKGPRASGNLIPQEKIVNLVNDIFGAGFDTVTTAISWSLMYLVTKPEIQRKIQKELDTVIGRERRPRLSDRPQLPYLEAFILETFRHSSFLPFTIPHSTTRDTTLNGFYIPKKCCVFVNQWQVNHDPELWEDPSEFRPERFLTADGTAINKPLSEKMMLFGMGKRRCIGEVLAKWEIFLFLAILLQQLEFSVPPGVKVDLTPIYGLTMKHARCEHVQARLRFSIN
# Description: as §1
# [4] = Pharmacokinetic evaluation in mice; assay type: in vivo
# Description: The test compounds were dissolved in vehicles to prepare clear solutions or homogeneous suspensions. […] Blood samples were collected at 0.083 h, 0.25 h, 0.5 h, 1 h, 2 h, 4 h, 8 h, and 24 h after the intravenous administration, and at 0.25 h, 0.5 h, 1 h, 2 h, 4 h, 6 h, 8 h, and 24 h after the oral administration. Plasma samples were centrifuged, and the supernatant was collected to prepare samples, which were then quantitatively analyzed by LC/MS/MS.
smiles,measurement,setting,value
O=C(COc1ccc(Cl)c(F)c1)N[C@H]1CC[C@H](c2nnc(N3CC(OC(F)(F)F)C3)o2)CC1 [Compound 6],solubility at 1.5 h,"[1]; FaSSIF buffer (fasted-state simulated intestinal fluid), fassif, fasted-state simulated intestinal fluid (pH=6.5)",> 10 µg/mL
same,solubility at 1.5 h,"[1]; FeSSIF buffer (fed-state simulated intestinal fluid), fessif, fed-state simulated intestinal fluid (pH=5.0)",> 80 µg/mL
same,IC50,[2],> 10 µM
same,IC50,[3],> 10 µM
same,pharmacokinetic properties in mice,"[4]; Cl, T1/2, Cmax, AUC, F",excellent pharmacokinetic properties in mice
same,AUC(0-inf),"[4]; plasma, mouse IV (1 mg/kg)",11.4 µg·h/mL
same,C0,"[4]; plasma, mouse IV (1 mg/kg)",1240 ng/mL
same,clearance,"[4]; plasma, mouse IV (1 mg/kg)",1.46 mL/min/kg
same,half-life,"[4]; plasma, mouse IV (1 mg/kg)",6.35 h
same,Vd,"[4]; plasma, mouse IV (1 mg/kg), read-out: Vss",0.707 L/kg
same,AUC(0-inf),"[4]; plasma, mouse PO (30 mg/kg)",516 µg·h/mL
same,Cmax,"[4]; plasma, mouse PO (30 mg/kg)",48000 ng/mL
same,Tmax,"[4]; plasma, mouse PO (30 mg/kg)",3.33 h
same,half-life,"[4]; plasma, mouse PO (30 mg/kg)",3.11 h
same,bioavailability,"[4]; plasma, mouse PO (30 mg/kg) vs IV (1 mg/kg)",161%
